Among the data in ChEMBL document CHEMBL5036323, “Discovery of RRx-001, a Myc and CD47 Downregulating Small Molecule with Tumor Targeted Cytotoxicity and Healthy Tissue Cytoprotective Properties in Clinical Development” (J Med Chem, 2021) are Time, IC50 and half-life values, retold here.

In data set [1] the test system is SCC-7. Nature of the data set: Antitumor activity against mouse SCC-7 cells implanted in C3H mouse assessed as tumor growth time delay at 12 mg/kg, ip treated every other day 3 times in total. In kind it is functional.
Data set [2] deals with SCC-7. The data set can be described thus: Antitumor activity against mouse SCC-7 cells implanted in C3H mouse assessed as tumor growth time at 12 mg/kg, ip treated every other day 3 times in total (reference value: 2.8 +/- 0.6 day). It is filed as functional.
Another data set concerns PANC-1. The data set can be described thus: Antiproliferative activity against human PANC-1 cells assessed as cell growth inhibition by CCK8 assay. It is filed as functional, cell-based. On the technique in general: Tetrazolium dyes change colour on reduction, which living cells bring about.
A further data set concerns A549. The data set can be described thus: Antiproliferative activity against human A549 cells assessed as cell growth inhibition by CCK8 assay. It is filed as functional, cell-based.
The test system of another data set is IMR-32. The data set can be described thus: Antiproliferative activity against human IMR-32 cells assessed as cell growth inhibition by CCK8 assay. It is filed as functional, cell-based.
Data set [3] deals with SCC-7. The data set can be described thus: Antiproliferative activity against mouse SCC-7 cells assessed as cell growth inhibition by CCK8 assay. In kind it is functional, cell-based.
A further data set relates to M21. Nature of the data set: Antiproliferative activity against human M21 cells assessed as cell growth inhibition by CCK8 assay. In kind it is functional, cell-based.
In a further data set the test system is RKO. Nature of the data set: Antiproliferative activity against human RKO cells assessed as cell growth inhibition by CCK8 assay. It is filed as functional, cell-based.
The subject of another data set is UMSCC22B. Nature of the data set: Antiproliferative activity against human UMSCC22B cells assessed as cell growth inhibition by CCK8 assay. It is filed as functional, cell-based.
Data set [4] is described as follows: Terminal half life in human plasma. It is filed as ADME, cell-free. The conditions noted are these: read-out: beta t1/2.
The test system of a further data set is HT-29. The data set can be described thus: Antiproliferative activity against human HT-29 cells assessed as cell growth inhibition by CCK8 assay. It is filed as functional, cell-based.
A further data set deals with U-87 MG. Nature of the data set: Antiproliferative activity against human U87 cells assessed as cell growth inhibition by CCK8 assay. In kind it is functional, cell-based, U-87MG ATCC.
Another data set relates to A498. Nature of the data set: Antiproliferative activity against human A498 cells assessed as cell growth inhibition by CCK8 assay. It is filed as functional, cell-based.
In the next data set the test system is SNB-75. The data set can be described thus: Antiproliferative activity against human SNB-75 cells assessed as cell growth inhibition by CCK8 assay. In kind it is functional, cell-based.
In a further data set the test system is MCF7. The data set can be described thus: Antiproliferative activity against human MCF7 cells assessed as cell growth inhibition by CCK8 assay. In kind it is functional, cell-based.

Molecules are shown by their SMILES.

In general, IC50 refers to the midpoint of a concentration-inhibition curve.

With `N[C@@H](CSCC(=O)N1CC([N+](=O)[O-])([N+](=O)[O-])C1)C(=O)O`, the Time in the data set on SCC-7 [1] worked out at 1.1 days; in the data set with SCC-7 [2] it was 3.9 days.

In the case of `C[N+](C)(C)CC(=O)N1CC([N+](=O)[O-])([N+](=O)[O-])C1`, the Time in the data set with SCC-7 [1] came out at 0.8 days; in the data set on SCC-7 [2], 3.6 days.

On to `O=C(CBr)N1CCC1`, for which the values for the Time in the data set with SCC-7 [1] and in the data set with SCC-7 [2] were 1 days and 3.8 days, respectively.

Regarding `O=C(CBr)N1CC([N+](=O)[O-])([N+](=O)[O-])C1` [NIBROZETONE], the Time in the data set on SCC-7 [1] came out at 2 days; with SCC-7 [2] it was 4.8 days. The IC50 in the data set with PANC-1 amounted to 2.3 pM; in the data set with A549 it was 6 pM; with IMR-32, 5.1 pM; in the data set on SCC-7 [3], 1.8 pM; in the data set with M21 it was 2.6 pM; in the data set with RKO it was 3 pM. Moreover, the IC50 is 2.3 pM in the data set on UMSCC22B; 3.4 pM with HT-29; 2.7 pM with U-87 MG; 4.9 pM in the data set with A498; 3.8 pM in the data set with SNB-75; 4 pM in the data set with MCF7. The half-life in data set [4] is 27.6 min.
